How the values were obtained:
[1] = target: T1, cathepsin B in human neuroblastoma cells (SHSY5Y) (Homo sapiens, UniProt P07858); experiment: Neuroblastoma cells incubated with inhibitors, then cathepsin B assay; assay type: cell-based
T1 construct: endogenous in cells; host or cells: SH-SY5Y human neuroblastoma cells
Procedure: Cathepsin B in human neuroblastoma cells treated with inhibitors. Neuroblastoma cells (human SHSY5Y) were grown in media consisting of 50% MEMalpha, 50% F12-K, 10% heat-inactivated FBS at 37° C. in an atmosphere of 95% air and 5% CO2. Firstly, cell homogenates were prepared by collection of cells in 0.32 M sucrose and freeze-thawing. Secondly, cells were incubated with Z-Arg-Lys-AOMK or CA-074Me for 6 hours at 37° C., and washed 3 times in phosphate-buffered saline and homogenates were prepared in 0.32 M sucrose with freeze-thawing. CA-074Me is a methyl ester form of the active CA-074 selective inhibitor of cathepsin B (70); CA-074Me penetrates the cell and is converted by intracellular esterases to CA-074.
Cathepsin B activity in the homogenates were monitored with Z-Arg-Arg-AMC substrate (60 μM) with buffer conditions of 40 mM citrate-phosphate, pH 5.5, 5 mM DTT, 1 mM EDTA, 100 mM NaCl, and 1.2% DMSO, followed by incubation at 37° C. for 30 minutes and reading of AMC fluorescence. CA-074-senstive activity was monitored to indicate cathepsin B activity, since CA-074 is a selective inhibitor of this enzyme (70). Protein content was measured in homogenates with the DC protein assay kit. Cathepsin B specific activity was calculated as nmol AMC/μg/min, and reported as the mean±SD (with analyses for statistical significance, p<0.05 by student's t-test).

cathepsin B = target: T2, cathepsin B (Homo sapiens, UniProt P07858); experiment: Cathepsin B inhibitor kinetic characterization, fluorogenic assay with Z-Phe-Arg-AMC; assay type: biochemical; settings: for reduction of cathepsin B activity: 64 nM inhibitor; for kinact/KI / Ki / IC50: cathepsin B
T2 construct: purchased R&D Systems 953-CY-010
Procedure: Inhibitor kinetic characterization using fluorogenic assays for cathepsin B activity. Kinetic analyses of IC50, K1, kobs, and kinact/K1 values for Z-Arg-Lys-AOMK and Z-Glu-Lys-AOMK inhibition of cathepsin B were conducted by fluorogenic proteolytic assays consisting of 40 μM Z-Phe-Arg-AMC, 40 mM citrate phosphate at pH 7.2 or pH 4.6, 1 mM EDTA, 100 mM NaCl, 5 mM DTT, and 0.01% Tween 20; assays were performed at room temperature (22-27° C.) in quadruplicate. Inhibitor and substrate were combined in the reaction well, and the assay was started upon addition of cathepsin B (0.04 ng/μL). The inhibitor concentration ranged from 5.5 μM to 1.1 nM (1.5-fold serial dilution). A vehicle control assay contained 2% DMSO instead of inhibitor. Enzyme velocity (RFU/sec) was measured during a […] incubation period as relative fluorescent units per sec (RFU/s), calculated using the highest slope recorded for 10 consecutive readings taken at 46 sec intervals (thus, activity is calculated over a total of 460 sec). Prism software was used to analyze enzyme activity data in kinetic studies. IC50 values were calculated (without preincubation of inhibitor and enzyme) as the concentration of inhibitor that reduced cathepsin B activity by 50%.
For determination of K1 and kinact/K1 kinetic inhibition constants, kobs constants were determined by plots of cathepsin B activity in time courses with different inhibitor concentrations by curve fitting slope data of RFU versus time into Y=Y0*e^(−kobs*^X), where Y0 is the activity for the control with no inhibitor condition, Y is the activity in the presence of inhibitor, X is time. K1 and kinact values were calculated from curve fitting the kobs values into the equation kobs=kinact*[I]/(K1+[I]), where [I] is inhibitor concentration, and K1 is the x-axis inhibitor concentration where y=kinact/2 and kinact is the maximum rate of inactivation at saturating inhibitor concentrations (93, 94). These kinetic analyses are for irreversible inhibitors, Z-Arg-Lys-AOMK and Z-Glu-Lys-AOMK of this study, that utilize Ki values, rather than Ki values used for reversible inhibitors (93).

`Cc1cccc(C)c1C(=O)OCC(=O)C(CCCCN)NC(=O)C(CCCNC(=N)N)NC(=O)OCc1ccccc1` (stereo not drawn) [Z-Arg-Lys-AOMK] was tested, and the “inhibition of cellular cathepsin B activity” value ([1]; cells incubated with 50 μM inhibitor for 6 hrs, washed, homogenate assayed with Z-Arg-Arg-AMC) was “completely inhibited”, the cell permeability ([1]; neuroblastoma cells, 50 μM, 6 hrs) was “cell permeable” and the “reduction of cathepsin B activity” value (cathepsin B; pH 4.6, Z-Phe-Arg-AMC substrate) was 5%. The “reduction of cathepsin B activity” value (cathepsin B; pH 7.2, Z-Phe-Arg-AMC substrate) was 93%, the kinact/KI (cathepsin B; pH 4.6) was 1800 M⁻¹ s⁻¹ and the Ki (cathepsin B; pH 4.6, irreversible inhibitor) was 15000 nM. The IC50 (cathepsin B; pH 4.6, without preincubation) was 1500 nM, the IC50 (cathepsin B; pH 6.8 (data not shown)) was 22 nM and the kinact/KI (cathepsin B; pH 7.2) was 110000 M⁻¹ s⁻¹. It also gave a Ki (cathepsin B; pH 7.2, irreversible inhibitor) of 130 nM and an IC50 (cathepsin B; pH 7.2, without preincubation) of 20 nM.

Source: US20240181068A1, “SELECTIVE NEUTRAL PH INHIBITOR OF CATHEPSIN B” (The Regents of the University of California, priority 2021, published 2024)
